In patent US8426408B2, “Pyrimidine inhibitors of kinases” (AbbVie Inc., priority 2009, dated 2013):

What was measured:
Assay type in all cases: biochemical
[1] = molecular target: T1, Aurora B (Homo sapiens, UniProt Q96GD4); assay: Aurora B enzyme inhibition (time-resolved fluorescence, histone H3 peptide); conditions: 1 mM ATP
T1 construct: Active Aurora B enzyme (recombinant residues 1-344)
Description: To determine Aurora B activity of representative compounds of the invention, Active Aurora B enzyme (recombinant residues 1-344) and INCENP (recombinant GST fusion protein (Upstate)) were incubated in wells of a 384 well plate with biotinylated histone H3 peptide residues 1-21 (Upstate), 1 mM ATP, and various concentrations of inhibitors in a HEPES buffer, pH 7.4 containing MgCl2, sodium othrovanadate, and Triton X-100. After 1 hour, the reaction was stopped with EDTA and anti-phospho-histone H3 Europium Cryptate (Cis-Bio) and SA-APC (Phycolink, Prozyme) were added to detect the phosphopeptide. The amount of phosphorylation was determined by the time-resolved fluorescence ratio of signals at 665 nm and 615 nm. The IC50's were calculated by an exponential fit of the inhibition values with the inhibitor concentrations using Assay Explorer software.

[2] = molecular target: T2, Aurora A (Homo sapiens, UniProt O14965); assay: Aurora A enzyme inhibition (time-resolved fluorescence, STK substrate-2); conditions: 1 mM ATP
T2 sequence (O14965 1-403): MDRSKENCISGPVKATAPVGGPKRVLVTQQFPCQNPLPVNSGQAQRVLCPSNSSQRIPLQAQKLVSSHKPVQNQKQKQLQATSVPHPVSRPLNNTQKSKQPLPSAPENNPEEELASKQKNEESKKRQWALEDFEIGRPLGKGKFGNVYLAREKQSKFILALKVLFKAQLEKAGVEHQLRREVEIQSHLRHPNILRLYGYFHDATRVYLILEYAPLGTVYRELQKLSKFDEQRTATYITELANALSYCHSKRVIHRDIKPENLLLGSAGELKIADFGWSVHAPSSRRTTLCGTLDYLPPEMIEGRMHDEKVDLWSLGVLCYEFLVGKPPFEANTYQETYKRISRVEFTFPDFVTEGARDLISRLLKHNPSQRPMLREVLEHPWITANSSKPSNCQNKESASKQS
Description: To determine Aurora A and C activity of representative compounds of the invention, Active Aurora A or C enzyme was incubated in wells of a 384 well plate with biotinylated STK substrate-2 (Upstate), 1 mM ATP, and various concentrations of inhibitors in a Hepes buffer, pH 7.4 containing MgCl2, sodium othrovanadate, and Triton X-100. After 1 hour, the reaction was stopped with EDTA and anti-phospho-STK antibody Europium Cryptate (Upstate) and SA-XL665 (Upstate) were added to detect the phosphopeptide. The amount of phosphorylation was determined by the time-resolved fluorescence ratio of signals at 665 nm and 615 nm. The IC50s were calculated by an exponential fit of the inhibition values with the inhibitor concentrations using Assay Explorer software.

[3] = molecular target: KDR (Homo sapiens, UniProt P35968); assay: KDR HTRF in vitro kinase assay; design: purified enzyme (His6-KDR 789-1354, MW 63 kD); His6 (N); conditions: 1 mM ATP; read-out: KDR enzyme inhibition data (Ki)
KDR, sequence (P35968 789-1354): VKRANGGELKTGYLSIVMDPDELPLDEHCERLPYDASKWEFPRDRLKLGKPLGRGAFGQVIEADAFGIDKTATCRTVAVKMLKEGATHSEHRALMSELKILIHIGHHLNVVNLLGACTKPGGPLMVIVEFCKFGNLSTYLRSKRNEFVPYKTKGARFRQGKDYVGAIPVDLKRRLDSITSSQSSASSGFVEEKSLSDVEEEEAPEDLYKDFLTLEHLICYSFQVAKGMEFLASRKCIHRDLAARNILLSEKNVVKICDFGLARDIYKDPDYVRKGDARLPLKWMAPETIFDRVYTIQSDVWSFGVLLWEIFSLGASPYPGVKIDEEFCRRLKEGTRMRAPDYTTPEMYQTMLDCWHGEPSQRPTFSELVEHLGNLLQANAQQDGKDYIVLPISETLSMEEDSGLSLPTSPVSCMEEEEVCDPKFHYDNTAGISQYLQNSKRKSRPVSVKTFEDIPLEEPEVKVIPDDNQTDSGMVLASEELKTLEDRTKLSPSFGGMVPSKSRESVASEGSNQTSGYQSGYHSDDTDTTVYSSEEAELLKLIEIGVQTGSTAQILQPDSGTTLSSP
Description: To determine the activity of the various kinases, a homogenous time-resolved fluorescence (HTRF) in vitro kinase assay was used. (Mathis, G., HTRF® Technology. J Biomol Screen, 1999. 4(6): p. 309-314; Alfred J. Kolb, Paul V. Kaplita, David J. Hayes, Young-Whan Park, Christine Pernell, John S. Major and Gerard Mathis, Drug Discovery Today, 1998, 3, 333-342.)
For example for KDR, 7 ng/well of purified enzyme (His6-KDR 789-1354, MW 63 kD) was mixed with 0.5 μM N-biotinylated substrate (Biotin-Ahx-AEEEYFFLA-amide (SEQ. ID. 1)), various concentrations of inhibitor in reaction buffer (50 mM HEPES, pH 7.1, 10 mM MgCl2, 2 mM MnCl2, 0.1% BSA and 1 mM DTT, 40 L final volume), ATP (1 mM final conc.) in a black 384-well plate. After 60 minutes incubation at room temperature, the reaction was quenched by addition of a buffered EDTA solution (final approximate concentrations: 30 mM EDTA, 0.1% BSA, 0.1% Triton X-100 and 0.24M KF) and a solution of revelation agents (to give 0.084 ng/well streptavidin-XL-665 (Cis-Bio) and 6.5 ng/well antiphsophotyrosine mAb PT66-K Europium kryptate) was added to the reaction mixture. The quenched reaction was allowed to stand at room temperature for 3 hours and was then read in a time-resolved fluorescence detector (InVision, Perkin-Elmer) at 620 nm and 665 nm sequentially with excitation. The ratio between the signal of 620 nm and 665 nm was used in the calculation of the IC50.

T1 sequence (Q96GD4 whole entry, the tested form may be a part): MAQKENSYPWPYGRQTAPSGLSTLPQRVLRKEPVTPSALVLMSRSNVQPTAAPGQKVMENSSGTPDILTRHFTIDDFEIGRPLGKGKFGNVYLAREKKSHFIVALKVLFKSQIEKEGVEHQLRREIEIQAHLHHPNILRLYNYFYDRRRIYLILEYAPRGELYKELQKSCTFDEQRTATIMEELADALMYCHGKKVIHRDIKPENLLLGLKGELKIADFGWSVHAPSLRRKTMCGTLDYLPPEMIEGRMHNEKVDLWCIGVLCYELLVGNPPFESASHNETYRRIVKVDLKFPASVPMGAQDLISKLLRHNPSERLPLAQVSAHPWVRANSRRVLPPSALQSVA
T1 sequence (Q9NQS7 826-918 partner limits assumed): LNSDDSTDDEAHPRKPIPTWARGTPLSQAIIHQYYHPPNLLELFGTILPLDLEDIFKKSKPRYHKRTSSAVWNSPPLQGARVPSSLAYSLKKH

Ki [1] [nM]	Ki [2] [nM]	Ki [3] [nM]	SMILES
< 100	< 100	< 100	NC(=O)[C@@H]1[C@H](Nc2nc(Nc3cnn(CCN4CCCC4)c3)ncc2F)[C@H]2C=C[C@@H]1C2.NC(=O)[C@H]1[C@@H](Nc2nc(Nc3cnn(CCN4CCCC4)c3)ncc2F)[C@@H]2C=C[C@H]1C2 (mixture of isomers) [Example 45, (1S,2S,3R,4R)-3-[(5-fluoro-2-{[1-(2-pyrrolidin-1-ylethyl)-1H-pyrazol-4-yl]amino}pyrimidin-4-yl)amino]bicyclo[2.2.1]hept-5-ene-2-carboxamide and (1R,2R,3S,4S)-3-[(5-fluoro-2-{[1-(2-pyrrolidin-1-ylethyl)-1H-pyrazol-4-yl]amino}pyrimidin-4-yl)amino]bicyclo[2.2.1]hept-5-ene-2-carboxamide]
< 100	< 100	< 100	CNC(=O)[C@@H]1[C@H](Nc2nc(Nc3cnn(C)c3)ncc2C(F)(F)F)[C@H]2C=C[C@@H]1C2.CNC(=O)[C@H]1[C@@H](Nc2nc(Nc3cnn(C)c3)ncc2C(F)(F)F)[C@@H]2C=C[C@H]1C2 (mixture of isomers) [Example 47, (1S,2S,3R,4R)—N-methyl-3-{[2-[(1-methyl-1H-pyrazol-4-yl)amino]-5-(trifluoromethyl)pyrimidin-4-yl]amino}bicyclo[2.2.1]hept-5-ene-2-carboxamide and (1R,2R,3S,4S)—N-methyl-3-{[2-[(1-methyl-1H-pyrazol-4-yl)amino]-5-(trifluoromethyl)pyrimidin-4-yl]amino}bicyclo[2.2.1]hept-5-ene-2-carboxamide]
< 100	< 100	< 100	CCn1cc(Nc2ncc(Br)c(N[C@@H]3[C@H](C(=O)NC)[C@H]4C=C[C@@H]3C4)n2)cn1.CCn1cc(Nc2ncc(Br)c(N[C@H]3[C@@H](C(=O)NC)[C@@H]4C=C[C@H]3C4)n2)cn1 (mixture of isomers) [Example 49, (1S,2S,3R,4R)-3-({5-bromo-2-[(1-ethyl-1H-pyrazol-4-yl)amino]pyrimidin-4-yl}amino)-N-methylbicyclo[2.2.1]hept-5-ene-2-carboxamide and (1R,2R,3S,4S)-3-({5-bromo-2-[(1-ethyl-1H-pyrazol-4-yl)amino]pyrimidin-4-yl}amino)-N-methylbicyclo[2.2.1]hept-5-ene-2-carboxamide]
< 100	< 100	< 100	CCn1cc(Nc2ncc(Cl)c(N[C@@H]3[C@H](C(=O)NC)[C@H]4C=C[C@@H]3C4)n2)cn1.CCn1cc(Nc2ncc(Cl)c(N[C@H]3[C@@H](C(=O)NC)[C@@H]4C=C[C@H]3C4)n2)cn1 (mixture of isomers) [Example 51, (1S,2S,3R,4R)-3-({5-chloro-2-[(1-ethyl-1H-pyrazol-4-yl)amino]pyrimidin-4-yl}amino)-N-methylbicyclo[2.2.1]hept-5-ene-2-carboxamide and (1R,2R,3S,4S)-3-({5-chloro-2-[(1-ethyl-1H-pyrazol-4-yl)amino]pyrimidin-4-yl}amino)-N-methylbicyclo[2.2.1]hept-5-ene-2-carboxamide]
< 100	< 100	< 100	COc1cnc(Nc2cnn(C)c2)nc1NC1C2C=CC(C2)C1C(N)=O (mixture of isomers) [Example 52, (1S,2S,3R,4R)-3-({5-methoxy-2-[(1-methyl-1H-pyrazol-4-yl)amino]pyrimidin-4-yl}amino)bicyclo[2.2.1]hept-5-ene-2-carboxamide and (1R,2R,3S,4S)-3-({5-methoxy-2-[(1-methyl-1H-pyrazol-4-yl)amino]pyrimidin-4-yl}amino)bicyclo[2.2.1]hept-5-ene-2-carboxamide]

The remaining lines, values behind:

SMILES	Ki [1] [nM]	Ki [2] [nM]	Ki [3] [nM]
CNC(=O)[C@@H]1[C@H](Nc2nc(Nc3cnn(C)c3)ncc2Br)[C@H]2C=C[C@@H]1C2.CNC(=O)[C@H]1[C@@H](Nc2nc(Nc3cnn(C)c3)ncc2Br)[C@@H]2C=C[C@H]1C2 (mixture of isomers) [Example 48, (1S,2S,3R,4R)-3-({5-bromo-2-[(1-methyl-1H-pyrazol-4-yl)amino]pyrimidin-4-yl}amino)-N-methylbicyclo[2.2.1]hept-5-ene-2-carboxamide and (1R,2R,3S,4S)-3-({5-bromo-2-[(1-methyl-1H-pyrazol-4-yl)amino]pyrimidin-4-yl}amino)-N-methylbicyclo[2.2.1]hept-5-ene-2-carboxamide]	< 100	< 100	< 100
CCn1cc(Nc2ncc(OC)c(NC3C4C=CC(C4)C3C(N)=O)n2)cn1 (mixture of isomers) [Example 53, (1S,2S,3R,4R)-3-({2-[(1-ethyl-1H-pyrazol-4-yl)amino]-5-methoxypyrimidin-4-yl}amino)bicyclo[2.2.1]hept-5-ene-2-carboxamide and (1R,2R,3S,4S)-3-({2-[(1-ethyl-1H-pyrazol-4-yl)amino]-5-methoxypyrimidin-4-yl}amino)bicyclo[2.2.1]hept-5-ene-2-carboxamide]	< 100	< 100	< 100
CN(C)C(=O)Cn1cc(Nc2ncc(Cl)c(N[C@@H]3[C@H](C(N)=O)[C@H]4C=C[C@@H]3C4)n2)cn1.CN(C)C(=O)Cn1cc(Nc2ncc(Cl)c(N[C@H]3[C@@H](C(N)=O)[C@@H]4C=C[C@H]3C4)n2)cn1 (mixture of isomers) [Example 54, (1S,2S,3R,4R)-3-{[5-chloro-2-({1-[2-(dimethylamino)-2-oxoethyl]-1H-pyrazol-4-yl}amino)pyrimidin-4-yl]amino}bicyclo[2.2.1]hept-5-ene-2-carboxamide and (1R,2R,3S,4S)-3-{[5-chloro-2-({1-[2-(dimethylamino)-2-oxoethyl]-1H-pyrazol-4-yl}amino)pyrimidin-4-yl]amino}bicyclo[2.2.1]hept-5-ene-2-carboxamide]	< 100	< 100	< 100
CC(C)OC(=O)Cn1cc(Nc2ncc(Br)c(N[C@@H]3[C@H](C(N)=O)[C@H]4C=C[C@@H]3C4)n2)cn1.CC(C)OC(=O)Cn1cc(Nc2ncc(Br)c(N[C@H]3[C@@H](C(N)=O)[C@@H]4C=C[C@H]3C4)n2)cn1 (mixture of isomers) [Example 55, isopropyl{4-[(4-{[(1S,2S,3R,4R)-3-(aminocarbonyl)bicyclo[2.2.1]hept-5-ene-2-yl]amino}-5-bromopyrimidin-2-yl)amino]-1H-pyrazol-1-yl}acetate and isopropyl{4-[(4-{[(1R,2R,3S,4S)-3-(aminocarbonyl)bicyclo[2.2.1]hept-5-ene-2-yl]amino}-5-bromopyrimidin-2-yl)amino]-1H-pyrazol-1-yl}acetate]	< 100	< 100	< 100
Cn1cc(Nc2ncc(Cl)c(N[C@@H]3[C@H]4CC[C@H](C4)[C@@H]3C(N)=O)n2)cn1.Cn1cc(Nc2ncc(Cl)c(N[C@H]3[C@@H]4CC[C@@H](C4)[C@H]3C(N)=O)n2)cn1 (mixture of isomers) [Example 56, (1R,2S,3R,4S)-3-({5-chloro-2-[(1-methyl-1H-pyrazol-4-yl)amino]pyrimidin-4-yl}amino)bicyclo[2.2.1]heptane-2-carboxamide and (1S,2R,3S,4R)-3-({5-chloro-2-[(1-methyl-1H-pyrazol-4-yl)amino]pyrimidin-4-yl}amino)bicyclo[2.2.1]heptane-2-carboxamide]	< 100	< 100	< 100
